Test results from patent publication US10471139B2, “Toll-like receptor agonists” (The University of Kansas, priority 2013, dated 2019).
Like-named read-outs stand apart in the source and are kept apart here.

Key:
Assay type in all cases: cell-based
[1] = biological target: T1, human TLR7 (Homo sapiens, UniProt Q9NYK1); assay: Human TLR7 reporter gene assay (NF-κB induction), HEK-Blue-7 cells; conditions: for TLR7-agonistic potency relative to compound 5: fold over compound 5
T1 construct: expressed in transfected cells; host or cells: HEK293 (HEK-Blue-7)
T1 sequence (Q9NYK1 27-1049): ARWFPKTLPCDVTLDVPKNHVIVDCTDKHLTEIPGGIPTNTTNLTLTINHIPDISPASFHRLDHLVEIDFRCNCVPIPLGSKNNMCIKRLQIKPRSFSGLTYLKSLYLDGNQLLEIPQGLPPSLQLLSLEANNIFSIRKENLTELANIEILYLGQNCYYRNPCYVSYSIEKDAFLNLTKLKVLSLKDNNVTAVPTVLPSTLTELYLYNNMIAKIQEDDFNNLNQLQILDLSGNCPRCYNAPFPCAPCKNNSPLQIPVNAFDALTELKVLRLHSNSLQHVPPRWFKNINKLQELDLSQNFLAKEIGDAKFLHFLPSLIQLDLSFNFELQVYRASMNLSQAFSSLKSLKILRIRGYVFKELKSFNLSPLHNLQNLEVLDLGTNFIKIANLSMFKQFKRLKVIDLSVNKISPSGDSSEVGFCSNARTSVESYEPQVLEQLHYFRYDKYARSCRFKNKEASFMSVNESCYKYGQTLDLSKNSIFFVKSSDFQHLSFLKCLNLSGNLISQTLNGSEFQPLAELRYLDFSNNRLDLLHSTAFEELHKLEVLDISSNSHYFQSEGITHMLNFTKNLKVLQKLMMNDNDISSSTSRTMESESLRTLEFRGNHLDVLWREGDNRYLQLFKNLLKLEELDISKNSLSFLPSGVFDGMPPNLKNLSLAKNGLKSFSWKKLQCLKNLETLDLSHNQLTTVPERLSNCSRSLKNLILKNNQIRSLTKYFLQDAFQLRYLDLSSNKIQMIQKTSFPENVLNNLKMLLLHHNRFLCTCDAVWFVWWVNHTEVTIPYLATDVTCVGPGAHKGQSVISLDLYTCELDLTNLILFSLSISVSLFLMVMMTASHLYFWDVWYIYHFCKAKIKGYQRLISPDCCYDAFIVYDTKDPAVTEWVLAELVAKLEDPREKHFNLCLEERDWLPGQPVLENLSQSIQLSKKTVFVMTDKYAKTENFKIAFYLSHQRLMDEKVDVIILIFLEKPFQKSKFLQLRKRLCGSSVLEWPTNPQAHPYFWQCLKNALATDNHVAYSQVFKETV
Text: (§1) Human TLR-7/-8 Reporter Gene Assays (NF-κB Induction).
(§2) The induction of NF-κB was quantified using HEK-Blue-7 (hTLR7-specific) and HEK-Blue-8 (hTLR8-specific) cells. HEK293 cells stably co-transfected with human TLR7 or human TLR8, MD2, and secreted alkaline phosphatase (sAP), were maintained in HEK-Blue™ Selection medium containing zeocin and normocin. Stable expression of secreted alkaline phosphatase (sAP) under control of NF-κB/AP-1 promoters is inducible by appropriate TLR agonists, and extracellular sAP in the supernatant is proportional to NF-κB induction.
(§3) HEK293 cells stably co-transfected with the appropriate hTLR (or NOD) and secreted alkaline phosphatase (sAP) were maintained in HEK-Blue™ Selection medium. Stable expression of secreted alkaline phosphatase (sAP) under control of NF-κB/AP-1 promoters is inducible by appropriate TLR/NOD agonists, and extracellular sAP in the supernatant is proportional to NF-κB induction.

[2] = biological target: T2, human TLR8 (Homo sapiens, UniProt Q9NR97); assay: Human TLR8 reporter gene assay (NF-κB induction), HEK-Blue-8 cells; conditions: TLR7 series
T2 construct: expressed in transfected cells; host or cells: HEK293 (HEK-Blue-8)
T2 sequence (Q9NR97 27-1041): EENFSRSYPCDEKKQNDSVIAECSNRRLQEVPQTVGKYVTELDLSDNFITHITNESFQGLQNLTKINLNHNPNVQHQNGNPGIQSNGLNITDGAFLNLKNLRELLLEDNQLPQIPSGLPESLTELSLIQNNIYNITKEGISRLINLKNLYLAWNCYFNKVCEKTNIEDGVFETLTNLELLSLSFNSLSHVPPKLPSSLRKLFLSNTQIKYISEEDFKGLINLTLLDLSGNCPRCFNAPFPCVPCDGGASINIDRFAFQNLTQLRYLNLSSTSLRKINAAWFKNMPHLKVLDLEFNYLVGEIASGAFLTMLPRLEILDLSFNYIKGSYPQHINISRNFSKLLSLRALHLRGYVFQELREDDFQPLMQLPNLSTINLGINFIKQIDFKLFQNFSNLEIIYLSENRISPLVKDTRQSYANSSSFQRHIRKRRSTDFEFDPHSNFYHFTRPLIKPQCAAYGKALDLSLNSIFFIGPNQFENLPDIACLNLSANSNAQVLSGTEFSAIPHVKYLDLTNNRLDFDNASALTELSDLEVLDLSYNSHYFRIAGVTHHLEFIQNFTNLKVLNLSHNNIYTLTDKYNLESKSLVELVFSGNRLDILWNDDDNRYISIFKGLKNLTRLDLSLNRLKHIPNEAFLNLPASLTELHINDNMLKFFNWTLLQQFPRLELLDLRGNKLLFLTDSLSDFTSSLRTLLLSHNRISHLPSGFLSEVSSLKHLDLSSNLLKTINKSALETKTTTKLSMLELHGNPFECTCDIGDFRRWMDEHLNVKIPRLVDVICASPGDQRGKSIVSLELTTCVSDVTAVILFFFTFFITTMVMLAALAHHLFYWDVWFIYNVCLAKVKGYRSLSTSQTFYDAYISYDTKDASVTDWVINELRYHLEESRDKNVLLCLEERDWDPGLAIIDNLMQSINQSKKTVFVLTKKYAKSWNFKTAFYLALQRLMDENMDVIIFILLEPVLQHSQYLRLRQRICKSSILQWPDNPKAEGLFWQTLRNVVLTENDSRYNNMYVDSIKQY
Text: as §1, §2, §3

[3] = tested on: human PBMCs; assay: IFN-α induction in human PBMCs (ELISA); conditions: PBMC
Experimental: Fresh human peripheral blood mononuclear cells (hPBMC) were isolated from human blood obtained by venipuncture with informed consent and as per institutional guidelines on Ficoll-Hypaque gradients as described elsewhere. Aliquots of PBMCs (10^5 cells in 100 μL/well) were stimulated for 12 h with graded concentrations of test compounds. Supernatants were isolated by centrifugation, and were assayed in triplicates using either high-sensitivity multi-subtype IFN-α ELISA kits (PBL Interferon Source, Piscataway, N.J. and R&D Systems, Inc., Minneapolis, Minn.), or analyte-specific multiplexed cytokine/chemokine bead array assays as reported by us previously.

[4] = human TLR7-specific reporter gene assay, Inactive = no activity up to 500 μg/mL
[5] = human TLR7-specific reporter gene assay, Inactive = no activity up to 500 μg/mL, read-out: hTLR7-agonistic Activity (EC50)
[6] = primary screen, read-out: TLR7-specific agonistic activity EC50

Structure (SMILES) | hTLR7-agonistic Activity (EC50) [1, 4] | EC50 [1, 5] [nM] | other results
CCCCc1nc2c(N)nc(NCc3cccc(CNc4cc5c(nc(CCCC)n5Cc5ccccc5)c(N)n4)c3)cc2n1Cc1ccccc1 [Compound 19s, N^6,N^6′-(1,3-phenylenebis(methylene))bis(1-benzyl-2-butyl-1H-imidazo[4,5-c]pyridine-4,6-diamine)] | Inactive | – | –
CCCCc1nc2c(N)nc(NCc3ccccc3)cc2n1Cc1ccccc1 [Compound 19f, N^6,1-Dibenzyl-2-butyl-1H-imidazo[4,5-c]pyridine-4,6-diamine] | – | 210 | TLR7-agonistic potency relative to compound 5 [1]: ~7.6
CCCCc1nc2c(N)nc(NCc3ccc(Cl)cc3)cc2n1Cc1ccccc1 [Compound 19j, 1-Benzyl-2-butyl-N^6-(4-chlorobenzyl)-1H-imidazo[4,5-c]pyridine-4,6-diamine] | – | 640 | –
CCCCc1nc2c(N)nc(N)cc2n1Cc1ccccc1 [Compound 19a, 1-Benzyl-2-butyl-1H-imidazo[4,5-c]pyridine-4,6-diamine] | – | 1250 | –
CCCCc1nc2c(N)nc(-c3ccsc3)cc2n1Cc1ccccc1 [Compound 23f, 1-Benzyl-2-butyl-6-(thiophen-3-yl)-1H-imidazo[4,5-c]pyridin-4-amine] | Inactive | – | –
CCCCc1nc2c(N)nc3ccccc3c2n1Cc1ccccc1 [1-benzyl-2-butyl-1H-imidazo[4,5-c]quinolin-4-amine, reference compound] | – | – | EC50 [1, 6]: 60 nM
CCCCc1nc2c(N)nc(NCc3ccc(CNc4cc5c(nc(CCCC)n5Cc5ccccc5)c(N)n4)cc3)cc2n1Cc1ccccc1 [Compound 19r, N^6,N^6′-(1,4-phenylenebis(methylene))bis(1-benzyl-2-butyl-1H-imidazo[4,5-c]pyridine-4,6-diamine)] | – | 1080 | –
CCCCCCCNc1cc2c(nc(CCCC)n2Cc2ccccc2)c(N)n1 [Compound 19c, 1-Benzyl-2-butyl-N^6-heptyl-1H-imidazo[4,5-c]pyridine-4,6-diamine] | – | 760 | –
CCCCc1nc2c(N)nccc2n1Cc1ccccc1 [Compound 5, 1-Benzyl-2-butyl-1H-imidazo[4,5-c]pyridin-4-amine] | – | – | TLR8 activity [2]: negligible; EC50 [1, 6]: 1570 nM
CCCCc1nc2c(N)nc(NCc3ccncc3)cc2n1Cc1ccccc1 [Compound 19l, 1-Benzyl-2-butyl-N^6-(pyridin-4-ylmethyl)-1H-imidazo[4,5-c]pyridine-4,6-diamine] | – | 250 | –
CCCCc1nc2c(N)nc(NCc3cccc(CN)c3)cc2n1Cc1ccccc1 [Compound 19q, N^6-(3-(aminomethyl)benzyl)-1-benzyl-2-butyl-1H-imidazo[4,5-c]pyridine-4,6-diamine] | – | – | EC50 [1, 6]: 370 nM
CCCCc1nc2c(N)nc(NCc3ccc(C(F)(F)F)cc3)cc2n1Cc1ccccc1 [Compound 19i, 1-Benzyl-2-butyl-N^6-(4-(trifluoromethyl)benzyl)-1H-imidazo[4,5-c]pyridine-4,6-diamine] | – | 1040 | –
CCCCc1nc2c(NC(C)=O)nccc2n1Cc1ccccc1 [Compound 6a, N-(1-Benzyl-2-butyl-1H-imidazo[4,5-c]pyridin-4-yl)acetamide] | Inactive^a | – | TLR7-specific agonistic activity EC50 ([1]; primary screen): complete abrogation of activity
CCCCc1nc2c(N)nc(-c3ccccc3)cc2n1Cc1ccccc1 [Compound 23b, 1-Benzyl-2-butyl-6-phenyl-1H-imidazo[4,5-c]pyridin-4-amine] | Inactive | – | –
CCCCNc1nccc2c1nc(CCCC)n2Cc1ccccc1 [Compound 11a, 1-Benzyl-N,2-dibutyl-1H-imidazo[4,5-c]pyridin-4-amine] | Inactive | – | –
CCCCc1nc2c(N)nc(Nc3ccccc3)cc2n1Cc1ccccc1 [Compound 19e, 1-Benzyl-2-butyl-N^6-phenyl-1H-imidazo[4,5-c]pyridine-4,6-diamine] | – | 1720 | –
CCCCc1nc2c(N)nc(-c3cccnc3)cc2n1Cc1ccccc1 [Compound 23d, 1-Benzyl-2-butyl-6-(pyridin-3-yl)-1H-imidazo[4,5-c]pyridin-4-amine] | Inactive | – | –
CCCCc1nc2c(N)nc(NCc3ccco3)cc2n1Cc1ccccc1 [Compound 19k, 1-Benzyl-2-butyl-N^6-(furan-2-ylmethyl)-1H-imidazo[4,5-c]pyridine-4,6-diamine] | – | 75 | TLR7-agonistic potency relative to compound 5 [1]: approximately twenty-fold; EC50 [3]: 700 nM
CCCCc1nc2c(N)nc(Cl)cc2n1Cc1ccccc1 [Compound 17, 1-Benzyl-2-butyl-6-chloro-1H-imidazo[4,5-c]pyridin-4-amine] | Inactive | – | TLR7-specific agonistic activity EC50 ([1]; primary screen): inactive
CCCCc1nc2c(N)nc(NCc3cccc(OC)c3)cc2n1Cc1ccccc1 [Compound 19h, 1-Benzyl-2-butyl-N^6-(3-methoxybenzyl)-1H-imidazo[4,5-c]pyridine-4,6-diamine] | – | 610 | –
CCCCc1nc2c(N)nc(CCc3ccccc3)cc2n1Cc1ccccc1 [Compound 23j, 1-Benzyl-2-butyl-6-phenethyl-1H-imidazo[4,5-c]pyridin-4-amine] | – | 570 | TLR7-specific agonistic activity EC50 ([1]; primary screen): restored
CCCCc1nc2c(N)nc(Cc3ccc(OC(F)(F)F)cc3)cc2n1Cc1ccccc1 [Compound 23i, 1-Benzyl-2-butyl-6-(4-(trifluoromethoxy)benzyl)-1H-imidazo[4,5-c]pyridin-4-amine] | Inactive | – | –
CCCCc1nc2c(N)nc(NCc3cccc4ccccc34)cc2n1Cc1ccccc1 [Compound 19n, 1-Benzyl-2-butyl-N^6-(naphthalen-1-ylmethyl)-1H-imidazo[4,5-c]pyridine-4,6-diamine] | Inactive | – | TLR7-specific agonistic activity EC50 ([1]; primary screen): quiescent
CCCCc1nc2c(NC(=O)CCC)nccc2n1Cc1ccccc1 [Compound 6b, N-(1-Benzyl-2-butyl-1H-imidazo[4,5-c]pyridin-4-yl) butyramide] | Inactive | – | TLR7-specific agonistic activity EC50 ([1]; primary screen): complete abrogation of activity
CCCCc1nc2c(N)nc(Cc3ccccc3)cc2n1Cc1ccccc1 [Compound 23g, 1,6-Dibenzyl-2-butyl-1H-imidazo[4,5-c]pyridin-4-amine] | – | 280 | TLR7-specific agonistic activity EC50 ([1]; primary screen): restored
CCCCc1nc2c(N)nc(NCc3ccc(-c4ccccc4)cc3)cc2n1Cc1ccccc1 [Compound 19o, N^6-([1,1′-Biphenyl]-4-ylmethyl)-1-benzyl-2-butyl-1H-imidazo[4,5-c]pyridine-4,6-diamine] | – | 1090 | TLR7-specific agonistic activity EC50 ([1]; primary screen): active
